Results reported in ChEMBL document CHEMBL3102731, “Structure-activity relationship studies and biological characterization of human NAD(+)-dependent 15-hydroxyprostaglandin dehydrogenase inhibitors” (Bioorg Med Chem Lett, 2014).

Columns and labels:
[1] = target: T1, 15-hydroxyprostaglandin dehydrogenase [NAD(+)] (Homo sapiens, UniProt P15428); experiment: Inhibition of human HPGD using PGE2 as substrate after 15 mins by fluorescence assay
T1 sequence (P15428 whole entry): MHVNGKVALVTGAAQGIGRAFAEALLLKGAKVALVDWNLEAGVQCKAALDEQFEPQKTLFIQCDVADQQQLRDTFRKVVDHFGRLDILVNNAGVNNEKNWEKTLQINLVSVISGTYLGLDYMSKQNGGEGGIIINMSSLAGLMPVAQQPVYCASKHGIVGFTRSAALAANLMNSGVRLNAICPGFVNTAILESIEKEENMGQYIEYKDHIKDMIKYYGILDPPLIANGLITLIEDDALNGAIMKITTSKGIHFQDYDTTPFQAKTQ

A549 [2] = experiment: Induction of PGE2 production in human A549 cells at 775 pM to 45.8 uM after 4 to 20 hrs by HTRF assay relative to control; format: functional
[3] = Passive permeability of the compound at pH 7.4 by PAMPA; format: ADME
[4] = Kinetic solubility of the compound in PBS buffer at pH 7.4; format: physicochemical
A549 [5] = experiment: Induction of PGE2 production in human A549 cells assessed as concentration required for half-maximal activation after 4 to 20 hrs by HTRF assay; format: functional, cell-based
LNCaP [6] = experiment: Induction of PGE2 production in human LNCAP cells assessed as half-maximal activation concentration after 16 hrs by HTRF assay; format: functional, cell-based
Liver microsome = experiment: Half life in rat liver microsomes in presence of NADPH; format: ADME
LNCaP [7] = experiment: Induction of PGE2 production in human LNCAP cells at 41.9 nM to 100 uM after 16 hrs by HTRF assay relative to control; format: functional
[8] = target: L-lactate dehydrogenase A chain (Homo sapiens, UniProt P00338); experiment: Inhibition of LDHA (unknown origin) using sodium pyruvate as substrate at 0.46 to 57.5 uM after 15 mins by fluorescence assay
[9] = target: L-lactate dehydrogenase B chain (Homo sapiens, UniProt P07195); experiment: Inhibition of LDHB (unknown origin) using sodium pyruvate as substrate at 0.46 to 57.5 uM after 15 mins by fluorescence assay
[10] = target: T2, Peroxisomal multifunctional enzyme type 2 (Homo sapiens, UniProt P51659); experiment: Inhibition of HSD17beta4 (unknown origin) using NAD+/estradiol as substrate at 324 pM to 57.2 uM after 15 mins by UV-fluorescence assay
T2 sequence (P51659 whole entry): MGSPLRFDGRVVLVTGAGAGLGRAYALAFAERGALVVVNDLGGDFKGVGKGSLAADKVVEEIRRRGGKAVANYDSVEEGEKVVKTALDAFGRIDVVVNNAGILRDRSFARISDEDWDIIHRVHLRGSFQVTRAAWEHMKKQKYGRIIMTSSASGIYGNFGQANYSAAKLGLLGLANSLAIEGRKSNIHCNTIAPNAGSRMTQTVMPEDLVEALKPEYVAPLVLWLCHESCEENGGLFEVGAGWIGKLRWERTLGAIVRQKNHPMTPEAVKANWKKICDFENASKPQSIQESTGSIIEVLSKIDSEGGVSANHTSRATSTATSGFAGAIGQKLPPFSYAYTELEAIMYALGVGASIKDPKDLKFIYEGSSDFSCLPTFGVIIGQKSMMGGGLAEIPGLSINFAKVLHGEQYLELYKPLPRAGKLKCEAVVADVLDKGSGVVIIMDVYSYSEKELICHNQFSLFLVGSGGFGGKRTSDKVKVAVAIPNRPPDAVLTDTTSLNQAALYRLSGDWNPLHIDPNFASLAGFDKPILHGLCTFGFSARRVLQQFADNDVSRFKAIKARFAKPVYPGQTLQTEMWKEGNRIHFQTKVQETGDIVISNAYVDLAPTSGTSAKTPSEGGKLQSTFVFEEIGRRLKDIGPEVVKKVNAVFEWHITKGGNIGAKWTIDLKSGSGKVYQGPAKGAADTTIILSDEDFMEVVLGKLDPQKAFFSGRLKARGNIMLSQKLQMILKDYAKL

[11] = target: Glyceraldehyde-3-phosphate dehydrogenase (Oryctolagus cuniculus, UniProt P46406); experiment: Inhibition of rabbit muscle GAPDH using glyceraldehyde-3-phosphate as substrate at 324 pM to 57.2 uM by fluorescence assay
[12] = target: T3, Aldehyde dehydrogenase 1A1 (Homo sapiens, UniProt P00352); experiment: Inhibition of ALDH1A1 (unknown origin) using NAD+/propionaldehyde as substrate after 15 mins by UV-fluorescence assay
T3 sequence (P00352 whole entry): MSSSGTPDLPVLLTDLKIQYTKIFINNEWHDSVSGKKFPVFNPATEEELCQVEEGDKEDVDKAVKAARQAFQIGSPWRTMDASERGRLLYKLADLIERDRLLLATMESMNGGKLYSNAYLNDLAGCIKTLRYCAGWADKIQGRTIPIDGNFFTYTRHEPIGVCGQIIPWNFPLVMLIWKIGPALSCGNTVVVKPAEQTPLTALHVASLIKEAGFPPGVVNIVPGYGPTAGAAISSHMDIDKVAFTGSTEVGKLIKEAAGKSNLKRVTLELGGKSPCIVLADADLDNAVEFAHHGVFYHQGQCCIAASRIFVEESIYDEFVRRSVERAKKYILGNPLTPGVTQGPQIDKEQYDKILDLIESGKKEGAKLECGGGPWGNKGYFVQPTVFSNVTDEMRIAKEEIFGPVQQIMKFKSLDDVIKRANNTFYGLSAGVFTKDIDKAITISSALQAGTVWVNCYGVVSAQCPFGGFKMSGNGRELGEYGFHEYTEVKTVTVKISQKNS

Sequence of L-lactate dehydrogenase B chain (P07195 whole entry): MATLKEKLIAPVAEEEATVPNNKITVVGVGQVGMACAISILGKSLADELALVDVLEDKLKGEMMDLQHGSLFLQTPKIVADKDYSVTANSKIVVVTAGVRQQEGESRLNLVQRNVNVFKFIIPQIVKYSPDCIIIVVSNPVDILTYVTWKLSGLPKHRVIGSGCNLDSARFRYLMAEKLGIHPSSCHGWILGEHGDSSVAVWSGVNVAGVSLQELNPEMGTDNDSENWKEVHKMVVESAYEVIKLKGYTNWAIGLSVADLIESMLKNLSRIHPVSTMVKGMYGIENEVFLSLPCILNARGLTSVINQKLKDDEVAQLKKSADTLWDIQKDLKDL
Sequence of Glyceraldehyde-3-phosphate dehydrogenase (P46406 whole entry): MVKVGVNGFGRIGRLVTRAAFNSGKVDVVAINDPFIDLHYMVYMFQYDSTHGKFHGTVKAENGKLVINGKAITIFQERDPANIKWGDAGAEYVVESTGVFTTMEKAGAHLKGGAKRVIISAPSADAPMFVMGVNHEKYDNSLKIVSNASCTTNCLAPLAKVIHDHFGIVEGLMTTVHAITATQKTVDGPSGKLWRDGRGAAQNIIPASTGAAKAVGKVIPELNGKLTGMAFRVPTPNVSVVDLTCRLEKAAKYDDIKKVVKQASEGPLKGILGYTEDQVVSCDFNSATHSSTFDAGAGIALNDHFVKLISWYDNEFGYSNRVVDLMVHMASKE

Cc1cccc(-n2cnc3cc(C(=O)N4CCCCC4)ccc32)c1
IC50 [1]: 0.019 µM
Activity (A549 [2]): 129%
permeability [3]: 12000 nm/s
Kinetic_solubility [4]: > 47 µM
AC50 (A549 [5]): 0.469 µM
AC50 (LNCaP [6]): 0.884 µM
t1/2 (Liver microsome): 7.3 min
Activity (LNCaP [7]): 62%

Cc1cc(-c2nnc3n2CCCCC3)c(C)n1-c1ccccc1
IC50 [1]: 0.054 µM
Activity (A549 [2]): 106%
permeability [3]: 5990 nm/s
Kinetic_solubility [4]: > 45 µM
Activity (LNCaP [7]): 73%

Cc1cc(-c2nnc3n2CCCCC3)c(C)n1-c1ccc(F)cc1
IC50 [1]: 0.121 µM

COc1ccccc1-n1cnc2cc(C(=O)N3CCCCC3)ccc21
IC50 [1]: 0.027 µM

Cc1cc(-c2nnc3n2CCCCC3)c(C)n1-c1ccc(Cl)cc1
IC50 [1]: 0.038 µM

Cc1cc(-c2nnc3n2CCCCC3)c(C)n1-c1ccc(Br)cc1
IC50 [1]: 0.048 µM

Cc1cc(-c2nnc3n2CCCCC3)c(C)n1-c1ccc(C(F)(F)F)cc1
IC50 [1]: 0.068 µM

Cc1cc(-c2nnc3n2CCCCC3)c(C)n1-c1cccc(C#N)c1
IC50 [1]: 0.076 µM
Activity (A549 [2]): 350%
IC50 [8]: Not Active
permeability [3]: 2290 nm/s
Kinetic_solubility [4]: > 49 µM
AC50 (A549 [5]): 2.64 µM
AC50 (LNCaP [6]): 1.77 µM
t1/2 (Liver microsome): 8.1 min
IC50 [9]: Not Active
IC50 [10]: Not Active
IC50 [11]: Not Active
Activity (LNCaP [7]): 63%
IC50 [12]: 6.81 µM

Cc1cc(-c2nnc3n2CCCCC3)c(C)n1-c1ccc(C#N)cc1
IC50 [1]: 0.096 µM

COc1ccc(-n2c(C)cc(-c3nnc4n3CCCCC4)c2C)cc1
IC50 [1]: 0.086 µM

Cc1cc(-c2nnc3n2CCCCC3)c(C)n1-c1ccc([N+](=O)[O-])cc1
IC50 [1]: 0.108 µM

Cc1cc(-c2nnc3n2CCCCC3)c(C)n1-c1ccc(C(C)(C)C)cc1
IC50 [1]: 0.136 µM

CCOC(=O)c1ccc(-n2c(C)cc(-c3nnc4n3CCCCC4)c2C)cc1
IC50 [1]: 0.038 µM

Cc1cc(-c2nnc3n2CCCCC3)c(C)n1-c1ccccn1
IC50 [1]: 1.08 µM

Cc1cc(-c2nnc3n2CCCCC3)c(C)n1-c1cccnc1
IC50 [1]: 0.271 µM

Cc1cc(-c2nnc3n2CCCCC3)c(C)n1-c1ccncc1
IC50 [1]: 0.383 µM

Cc1cc(-c2nnc3n2CCCCC3)c(C)n1-c1cccc2ccccc12
IC50 [1]: 0.108 µM

Cc1cc(-c2nnc3n2CCC3)c(C)n1-c1ccccc1
IC50 [1]: 3.04 µM

Cc1cc(-c2nnc3n2CCCC3)c(C)n1-c1ccccc1
IC50 [1]: 0.192 µM

Cc1cc(-c2nnc3n2CCCCCC3)c(C)n1-c1ccccc1
IC50 [1]: 0.242 µM

Cc1cc(-c2nnc3n2CCCCCCC3)c(C)n1-c1ccccc1
IC50 [1]: 0.383 µM

c1ccc(-n2ccc(-c3nnc4n3CCCCC4)c2)cc1
IC50 [1]: 0.607 µM

c1ccc(-n2ccc(-c3nnc4n3CCCCC4)n2)cc1
IC50 [1]: 3.83 µM

c1ccc(-n2cc(-c3nnc4n3CCCCC4)c3ccccc32)cc1
IC50 [1]: 0.681 µM

Cc1cccc(-n2cnc3cc(C(=O)N4CCCC(C)C4)ccc32)c1 (centres undefined)
IC50 [1]: 0.022 µM

Cc1cccc(-n2cnc3cc(C(=O)N4CC(C)CC(C)C4)ccc32)c1 (centres undefined)
IC50 [1]: 0.271 µM

Cc1cccc(-n2cnc3cc(C(=O)N4CCCC(C(C)C)C4)ccc32)c1 (centres undefined)
IC50 [1]: 0.048 µM

Cc1cccc(-n2cnc3cc(C(=O)N4CCCC(C)(C)C4)ccc32)c1
IC50 [1]: 0.068 µM
Activity (A549 [2]): 127%
IC50 [8]: Not Active
permeability [3]: 22600 nm/s
Kinetic_solubility [4]: 5.6 µM
AC50 (A549 [5]): 0.743 µM
AC50 (LNCaP [6]): 4.43 µM
t1/2 (Liver microsome): 1.8 min
IC50 [9]: Not Active
IC50 [10]: Not Active
IC50 [11]: Not Active
Activity (LNCaP [7]): 53%
IC50 [12]: 1.92 µM

Cc1cccc(-n2cnc3cc(C(=O)N4CCCC(C(F)(F)F)C4)ccc32)c1 (centres undefined)
IC50 [1]: 0.068 µM

Cc1cccc(-n2cnc3cc(C(=O)N4CCC(C(F)(F)F)CC4)ccc32)c1
IC50 [1]: 1.52 µM

Cc1cccc(-n2cnc3cc(C(=O)N4CCCC4)ccc32)c1
IC50 [1]: 0.383 µM

Cc1cccc(-n2cnc3cc(C(=O)N4CCCC(c5ccccc5)C4)ccc32)c1 (centres undefined)
IC50 [1]: 0.429 µM

Cc1cccc(-n2cnc3cc(C(=O)NC4CCCC4)ccc32)c1
IC50 [1]: 0.961 µM

CCCCNC(=O)c1ccc2c(c1)ncn2-c1cccc(C)c1
IC50 [1]: 1.36 µM

Cc1cccc(-n2cnc3cc(C(=O)N4CCN(C)CC4)ccc32)c1
IC50 [1]: 2.71 µM

Cc1cccc(-n2cnc3cc(C(=O)N4CCOCC4)ccc32)c1
IC50 [1]: 3.04 µM

O=C(c1ccc2c(c1)ncn2-c1ccccc1)N1CCCCC1
IC50 [1]: 0.022 µM

O=C(c1ccc2c(c1)ncn2-c1cccc(Cl)c1)N1CCCCC1
IC50 [1]: 0.012 µM
Activity (A549 [2]): 170%
IC50 [8]: Not Active
permeability [3]: 8950 nm/s
Kinetic_solubility [4]: > 50 µM
AC50 (LNCaP [6]): 0.222 µM
t1/2 (Liver microsome): 6.4 min
IC50 [9]: Not Active
IC50 [10]: Not Active
IC50 [11]: Not Active
Activity (LNCaP [7]): 85%
IC50 [12]: 1.92 µM

COc1cccc(-n2cnc3cc(C(=O)N4CCCCC4)ccc32)c1
IC50 [1]: 0.019 µM

O=C(c1ccc2c(c1)ncn2-c1cccc(C(F)(F)F)c1)N1CCCCC1
IC50 [1]: 0.048 µM
Activity (A549 [2]): 173%
IC50 [8]: Not Active
permeability [3]: 13500 nm/s
Kinetic_solubility [4]: > 55 µM
AC50 (A549 [5]): 2.64 µM
AC50 (LNCaP [6]): 2.8 µM
t1/2 (Liver microsome): 4.4 min
IC50 [9]: Not Active
IC50 [10]: Not Active
IC50 [11]: Not Active
Activity (LNCaP [7]): 70%
IC50 [12]: 6.81 µM

CC(C)c1cccc(-n2cnc3cc(C(=O)N4CCCCC4)ccc32)c1
IC50 [1]: 0.068 µM

CC(C)(C)c1cccc(-n2cnc3cc(C(=O)N4CCCCC4)ccc32)c1
IC50 [1]: 0.171 µM

Cc1ccc(-n2cnc3cc(C(=O)N4CCCCC4)ccc32)cc1
IC50 [1]: 0.019 µM

O=C(c1ccc2c(c1)ncn2-c1ccc(Cl)cc1)N1CCCCC1
IC50 [1]: 0.022 µM

COc1ccc(-n2cnc3cc(C(=O)N4CCCCC4)ccc32)cc1
IC50 [1]: 0.019 µM
Activity (A549 [2]): 174%
IC50 [8]: Not Active
permeability [3]: 6240 nm/s
Kinetic_solubility [4]: > 50 µM
AC50 (A549 [5]): 0.662 µM
AC50 (LNCaP [6]): 0.884 µM
t1/2 (Liver microsome): 23 min
IC50 [9]: Not Active
IC50 [10]: Not Active
IC50 [11]: Not Active
Activity (LNCaP [7]): 69%
IC50 [12]: 1.36 µM

O=C(c1ccc2c(c1)ncn2-c1ccc(C(F)(F)F)cc1)N1CCCCC1
IC50 [1]: 0.086 µM

CC(C)(C)c1ccc(-n2cnc3cc(C(=O)N4CCCCC4)ccc32)cc1
IC50 [1]: 0.054 µM

CC(C)(C)n1cnc2cc(C(=O)N3CCCCC3)ccc21
IC50 [1]: 0.034 µM

CCCCn1cnc2cc(C(=O)N3CCCCC3)ccc21
IC50 [1]: 0.068 µM
